Measurements: US20050130252A1, “Stabilized susceptibility tests of aerobic pathogens” (Wyeth Holdings Corporation, priority 2003, published 2005)
Values after ≈ are worked out from the molar mass of the structure shown. Read-outs that look alike come from different tables or passages of the source.

Experiments:
Assay in all cases: Broth microdilution MIC
S. aureus ATCC 29213 = type: cell-based, Staphylococcus aureus; settings: for MIC: Staphylococcus aureus, ATCC29213, read-out: Minimal Inhibitory Concentration, S. aureus ATCC 29213
Method: (§1) The process for preparing susceptibility test medium are the following steps: • a. Preparing Mueller Hinton Broth II medium by adding 22 grams powdered media to 1.0 liter distilled water; • b. Autoclaving (121° C., 15 psi, 15 minutes) and cooling the medium; • c. Adding Oxyrase® up to about 10% final volume and keeping at 35-37° C. in an incubator for 30 minutes; • d. Adding about 50 μL to each well of a 96 well microtiter plate; • e. Weighing drug and adding broth to drug to bring up to about (standard 128 μg/ml); • f. Adding 50 μL of the drug to the first column of the titer plate; • g. Diluting by two-fold serial diluting across or down the plate. • h. Preparing a Prompt™ inoculum at 10^8 CFU/ml; • i. Diluting inoculum 1:100 in the broth at […] in 9.9 ml (1:100) is 10^6 colony forming units (CFU) forming the adjusted inoculum; • j. Adding 50 μL of the adjusted inoculum to the wells of the microtiter plate; • k. Incubating the plates at 35-37° C. for 18-22 hours; and • l. Reading, with the unaided eye, the MIC.
(§2) The in vitro activities of tigecycline and control antibiotics were determined by the broth microdilution method as recommended by the NCCLS. (National Committee for Clinical Laboratory Standards, 2003. Methods for Dilution Antimicrobial Susceptibility Tests for Bacteria That Grow Aerobically; Approved Standards: M7-A6, Sixth ed, vol. 23., National Committee for Clinical Laboratory Standards Wayne, Pa.) was used for the standard procedures. MBH with 5% lysed horse blood was used for testing S. pneumoniae and Haemophilus Test Medium was used for testing H. influenzae. Oxyrase® (Oxyrase Inc, Mansfield, Ohio) was used according to the manufacturer's instructions by adding 1 ml of Oxyrase® to 50 ml of media. Media age studies were performed by preparing MHB in multiple flasks, then storing the media under various conditions. MICs were usually performed in duplicate on each day of testing. Storage under anaerobic conditions was conducted in an anaerobic chamber (MACS MG 1000, Don Whitley Scientific LTD). The pH of the media was determined by pH meter (Corning 430). A comparison of the in vitro activity of tigecycline by agar and broth dilution methodolgies with and without Oxyrase® against clinical isolates is shown in Table 1.

P. aeruginosa ATCC 27853 = type: cell-based, Pseudomonas aeruginosa; settings: Pseudomonas aeruginosa, ATCC27853, read-out: Minimal Inhibitory Concentration, P. aeruginosa ATCC 27853
Method: as §1, §2

H. influenzae ATCC 49247 = type: cell-based
Method: as §1
as §2, with “MBH with 5% lysed horse blood was used for testing S. pneumoniae and Haemophilus Test Medium was used for testing H. influenzae.” left out

[1] = Table 8, S. aureus ATCC 29213, Mueller Hinton Broth + Oxyrase, n = 240
[2] = Table 8, S. aureus ATCC 29213, Mueller Hinton Broth, n = 320
[3] = Table 9, S. aureus ATCC 29213, Mueller Hinton Broth + Oxyrase, n = 29
[4] = Table 9, S. aureus ATCC 29213, Mueller Hinton Broth, n = 131
[5] = Table 8, Mueller Hinton Broth + Oxyrase, n = 240
[6] = Table 8, Mueller Hinton Broth, n = 210

CN(C)c1cc(NC(=O)CNC(C)(C)C)c(O)c2c1C[C@H]1C[C@H]3[C@H](N(C)C)C(O)=C(C(N)=O)C(=O)[C@@]3(O)C(O)=C1C2=O [Tigecycline, tigecycline]
MIC (S. aureus ATCC 29213; MHB II + 0.05% L-ascorbic Acid): 2 µg/mL | MIC (S. aureus ATCC 29213; MHB II + 0.05% L-cysteine): 0.25 µg/mL | MIC (S. aureus ATCC 29213; MHB II + 0.05% Thioglycolate): 0.25 µg/mL | MIC (S. aureus ATCC 29213; MHB II + 2% Oxyrase): 0.12 µg/mL | MIC (S. aureus ATCC 29213; Mueller Hinton Broth II (Fresh)): 0.25 µg/mL (≈ 0.427 µM) | MIC (S. aureus ATCC 29213; Mueller Hinton Broth II (MHB II)): 0.25 to 0.5 µg/mL (≈ 0.427 to 0.854 µM) | MIC (S. aureus ATCC 29213; media Aged Anaerobic, N = 4): 0.06 to 0.12 µg/mL (≈ 0.102 to 0.205 µM) | Number of Occurrences of MIC 0.06 ug/ml (S. aureus ATCC 29213; [1]): 14 | Number of Occurrences of MIC 0.12 ug/ml (S. aureus ATCC 29213; [1]): 203 | Number of Occurrences of MIC 0.25 ug/ml (S. aureus ATCC 29213; [1]): 22 | Number of Occurrences of MIC 0.5 ug/ml (S. aureus ATCC 29213; [1]): 1 | Number of Occurrences of MIC 0.12 ug/ml (S. aureus ATCC 29213; [2]): 1 | Number of Occurrences of MIC 0.25 ug/ml (S. aureus ATCC 29213; [2]): 219 | Number of Occurrences of MIC 0.5 ug/ml (S. aureus ATCC 29213; [2]): 29 | Number of Occurrences of MIC 1 ug/ml (S. aureus ATCC 29213; [2]): 62 | Number of Occurrences of MIC 2 ug/ml (S. aureus ATCC 29213; [2]): 9 | Number of Occurrences of MIC 0.06 ug/ml (S. aureus ATCC 29213; [3]): 2 | Number of Occurrences of MIC 0.12 ug/ml (S. aureus ATCC 29213; [3]): 15 | Number of Occurrences of MIC 0.25 ug/ml (S. aureus ATCC 29213; [3]): 12 | Number of Occurrences of MIC 0.06 ug/ml (S. aureus ATCC 29213; [4]): 1 | Number of Occurrences of MIC 0.12 ug/ml (S. aureus ATCC 29213; [4]): 27 | Number of Occurrences of MIC 0.25 ug/ml (S. aureus ATCC 29213; [4]): 78 | Number of Occurrences of MIC 0.5 ug/ml (S. aureus ATCC 29213; [4]): 25 | MIC (P. aeruginosa ATCC 27853; 2% Oxyrase): 8 µg/mL (≈ 13.7 µM) | MIC (P. aeruginosa ATCC 27853; No Oxyrase): 16 µg/mL (≈ 27.3 µM) | Number of Occurrences of MIC 0.008 ug/ml (H. influenzae ATCC 49247; [5]): 2 | Number of Occurrences of MIC 0.016 ug/ml (H. influenzae ATCC 49247; [5]): 1 | Number of Occurrences of MIC 0.06 ug/ml (H. influenzae ATCC 49247; [5]): 4 | Number of Occurrences of MIC 0.12 ug/ml (H. influenzae ATCC 49247; [5]): 156 | Number of Occurrences of MIC 0.25 ug/ml (H. influenzae ATCC 49247; [5]): 75 | Number of Occurrences of MIC 0.5 ug/ml (H. influenzae ATCC 49247; [5]): 2 | Number of Occurrences of MIC 0.12 ug/ml (H. influenzae ATCC 49247; [6]): 13 | Number of Occurrences of MIC 0.25 ug/ml (H. influenzae ATCC 49247; [6]): 156 | Number of Occurrences of MIC 0.5 ug/ml (H. influenzae ATCC 49247; [6]): 25 | Number of Occurrences of MIC 1 ug/ml (H. influenzae ATCC 49247; [6]): 10 | Number of Occurrences of MIC 2 ug/ml (H. influenzae ATCC 49247; [6]): 6
